In patent US20230050846A1, “TREATMENT OF HEPATIC AND CARDIOVASCULAR DISORDERS” (LIFESEARCH, priority 2019, published 2023):

Assays:
human F1Fo-ATPase = target: T1, human F1Fo-ATPase (Homo sapiens, UniProt P06576); experiment: F1-ATPase activity assay (NADH-coupled, purified enzyme); format: biochemical; conditions: 1 μM
T1 construct: Human F1Fo-ATPase was purified from HepG2 cells by immunocapture; endogenous in cells; host or cells: HepG2 cells; complex isolated by immunocapture with anti-ATP synthase antibody 12F4AD8AF8 (#ab109867, Abcam)
Text: The mature human IF1 protein (SEQ ID NO: 5) was chemically synthesized by GenScript (Piscataway, N.J., USA) at >80% purity. The peptides derived from the mature human IF1 sequence (IF1-1-60, IF1-10-56, IF1-10-47) were produced by BachemAG (Bubendorf, Switzerland) with >90% purity.
Human F1Fo-ATPase was purified from HepG2 cells by immunocapture using mouse monoclonal anti-ATP synthase antibody (12F4AD8AF8, #ab109867, Abcam) according to manufacturer's instructions.
Measurement of F1-ATPase activity was assayed as previously described. Briefly, 10 μg of F1Fo-ATPase was prepared into 50 μL of activity assay buffer (10 mM HEPES, 150 mM NaCl, 5 mM KCl, 5 mM MgCl2, 0.5 mM phosphoenolpyruvate, 250 μM NADH, 100 μM ATP, 20 U lactate dehydrogenase, 120 U pyruvate kinase). The mixture was incubated at 37° C. for 30 min. Then the F1-ATPase activity was measured in a 96-well microplate by adding 5 μL of the mixture (1 μg of F1Fo-ATPase per point) per well to 200 μL of activity assay buffer at 37° C., and by adding 5 μL of buffer with or without peptide (1 μM each). The reduction in the absorbance of NADH was measured at 340 nm for 5 min with a Varioskan™ Flash Multimode Reader (Thermo Fisher Scientific). A slope was calculated for each well and the results expressed as a percentage of the control slope.

HepG2 cells = experiment: HDL endocytosis assay in hepatocytes; format: cell-based, human; conditions: for effect on HDL endocytosis: 1 μM, HDL-Alexa568 50 μg/mL, 25 min, abolished by IF1 1 μM
Method: HepG2 cells were seeded on 96-well plates at 50,000 cells/well. HDL3 (d 1.12-1.21) were isolated from plasma of healthy human donors and referred to as HDL. HDL was fluorescently labeled with AlexaFluor®568 dye (A10238, Thermofisher Scientific) according the instructions of manufacturer. 1 h30 before the assay, the cells were serum starved for 1 h30 in order to stabilize nucleotide secretion. Cells were incubated with inhibitors (H49K, 1 μM) for 10 min before treatment with the different peptides (1 μM) or apoA-I (10 μg/ml) purified from human plasma. 5 min after peptide treatment, endocytosis was initiated by 50 μg/mL of AlexaFluor568®-labelled HDL. The same experiment was performed with a […] excess of unlabelled HDL (2.5 mg/mL) to determine the nonspecific fluorescence signal. After 25 min at 37° C., cells were then washed in serum-free DMEM and extracellular membrane-bound HDL was disassociated by incubating cells at 4° C. in serum-free DMEM for 90 min. Following washes, cells were lysate in NaOH 0.1M SDS 1% during 2 h, lysates were transferred in a black 96-wells plate and fluorescence was recorded at 568 nm (Varioscan flash). Fluorescence for each condition was substrate with the value obtained in unlabelled HDL condition, and results were expressed as the fold change as compared with the basal condition (untreated cells).

[1] = target: T2, ecto-F1-ATPase (HepG2 cells) (Homo sapiens, UniProt P06576); experiment: ecto-F1-ATPase activity: extracellular ADP content, luciferin-luciferase assay; format: cell-based; conditions: HepG2, 5 min, apoA-I 10 μg/mL; effect blunted by IF1
T2 construct: host or cells: HepG2
Method: The human hepatocyte cell line HepG2 was obtained from the American Type Culture Collection (#HB-8065). HepG2 were cultured in Dulbecco's Modified Eagle's Medium (DMEM)—high glucose (D0822, Sigma-Aldrich) supplemented with 10% fetal bovine serum (10270098, Life technologies), 1% Penicillin-Streptomycin solution (P0781, Sigma-Aldrich). HepG2 cells were seeded on 24-well plates at 75,000 cells/well (Day 0). After 24 hours of growing, cells were serum starved for 24 h in order to synchronize cell cycles (Day 1) and then replaced additional 24 h in complete cell growth medium (Day 2). On day 3, cells were washed and equilibrated in fresh DMEM—high glucose without red phenol for 1 h (D1145, Sigma-Aldrich).
The cells were then treated 5 min with different concentration of peptide of formula (I) (0.1 to 5 μM), the peptide of formula (II) (1 μM), SCR (1 μM), SCR-K-16 (1 μM) or apoA-I (10 μg/mL) purified from human plasma.
Specific ecto-F1-ATPase activation was assessed in the presence of IF1 protein (1 μM), a natural inhibitor of F1-ATPase that interacts with the β-subunit to inhibit the ATP hydrolysis activity [5].
Supernatants were then collected and centrifuged (10,000 g, 5 min, 4° C.) and processed for ADP and ATP measurement. For ADP measurement, ADP was converted into ATP in 150 mM NaCl, 5 mM KCl, 2 mM MgCl2, pH 7.5 buffer containing 0.5 mM phosphoenolpyruvate (PEP) and pyruvate kinase (PK, 6 U per point for 15 min at 37° C.). For ATP measurement, 100 μl of sample was analyzed using the ATP bioluminescence assay kit CLS II (Roche Diagnostics). Samples were added to the ATP assay mixture and luminescence was measured in a microplate reader Infinite F500 (Tecan, Switzerland) for 1000 ms. The ATP standard curve was produced in the same medium as the samples and in the 10^−5 to 10^−10 M concentration range. The ADP concentration was then calculated as the ATP concentration following ADP conversion minus the basal ATP concentration. Data are expressed as nanomoles of ADP produced.

HUVEC cells = experiment: Endothelial nitric oxide (NO) production, DAF-FM-DA probe; format: cell-based, human; conditions: apoA-I; abolished by IF1
Method: Nitric oxide (NO) was detected using a DAF-FM-DA probe (D2321, Sigma-Aldrich) which forms fluorescent benzotriazole when it reacts with NO. HUVEC cells (PromoCell #C-12203) were seeded in 96-well plates (10,000 cells per well) and cultured in endothelial cell basal medium 2 (PromoCell #C-22211) supplemented with GM2 supplement Mix (PromoCell #C-39211), until 80-90% confluence. The medium was then replaced with M-199 without serum for 4 h, and the cells were incubated for 45 min with DAF-FM-DA (5 μM) diluted in PBS. Cells were treated with increasing concentrations of the different peptides or apoA-I (10 μM) purified from human plasma or histamine (1 mM) as positive control. In another set of experiments, cells were incubated with inhibitors (IF1, 1 μM) for 10 min before treatment with peptides or apoA-I. The fluorescence was recorded for 30 min (λex=495 nm, λem=515 nm) with a Tecan Flash Multimode Reader (Thermo Fisher Scientific). Fluorescence for each condition was compared with the value obtained in untreated cells, and results were expressed as the fold change as compared with the basal condition (untreated cells).

Substance: CH3CO-[SEQ ID NO: 2]-K-[palmitoyl]-NH2 (Ac-GEAKSYAEKGEARGERGTKGEFRIFKREATD-{K(palmitoyl)-NH2}) [SCR-K-C16, palmitoylated scramble peptide, negative control, reference compound]
- stimulation of F1-ATPase activity (human F1Fo-ATPase): no effect
- effect on HDL endocytosis (HepG2 cells): no effect

Substance: CH3CO-[SEQ ID NO: 2]-NH2 (Ac-GEAKSYAEKGEARGERGTKGEFRIFKREATD-NH2) [SCR, reference compound]
- stimulation of F1-ATPase activity (human F1Fo-ATPase): no effect
- effect on HDL endocytosis (HepG2 cells): no effect

Substance: apoA-I: Apolipoprotein A-I purified from human plasma, known F1-ATPase activator, positive control [reference compound]
- extracellular ADP concentration [1]: increased
- stimulation of HDL endocytosis compared to non-stimulated cells (HepG2 cells; apoA-I 10 μg/mL, abolished by IF1): about 45%
- NO production by endothelial cells (HUVEC cells): stimulated
